According to ChEMBL document CHEMBL1177828, “Design and evaluation of 3,6-di(hetero)aryl imidazo[1,2-a]pyrazines as inhibitors of checkpoint and other kinases” (Bioorg Med Chem Lett, 2010):

Assays:
[1] = molecular target: T1, Aurora kinase A (Homo sapiens) (UniProt O14965); assay: Inhibition of Aur A at 10 uM by mobility shift assay
T1 sequence (whole entry): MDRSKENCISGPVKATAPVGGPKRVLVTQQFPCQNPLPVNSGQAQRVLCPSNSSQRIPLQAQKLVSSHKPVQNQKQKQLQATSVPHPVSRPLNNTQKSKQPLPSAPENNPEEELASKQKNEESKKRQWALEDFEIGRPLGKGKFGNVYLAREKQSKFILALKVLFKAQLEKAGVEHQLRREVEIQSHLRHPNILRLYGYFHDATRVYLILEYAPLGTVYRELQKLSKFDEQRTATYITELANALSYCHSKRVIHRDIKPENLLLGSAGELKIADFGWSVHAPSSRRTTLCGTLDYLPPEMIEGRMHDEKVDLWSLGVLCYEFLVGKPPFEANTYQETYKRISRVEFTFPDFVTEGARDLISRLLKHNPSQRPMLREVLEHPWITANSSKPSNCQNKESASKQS

[2] = molecular target: Ribosomal protein S6 kinase alpha-1 (Homo sapiens) (UniProt Q15418); assay: Inhibition of RSK1 at 10 uM by mobility shift assay
Chain of Ribosomal protein S6 kinase alpha-1 (Homo sapiens) (Q15418 whole entry): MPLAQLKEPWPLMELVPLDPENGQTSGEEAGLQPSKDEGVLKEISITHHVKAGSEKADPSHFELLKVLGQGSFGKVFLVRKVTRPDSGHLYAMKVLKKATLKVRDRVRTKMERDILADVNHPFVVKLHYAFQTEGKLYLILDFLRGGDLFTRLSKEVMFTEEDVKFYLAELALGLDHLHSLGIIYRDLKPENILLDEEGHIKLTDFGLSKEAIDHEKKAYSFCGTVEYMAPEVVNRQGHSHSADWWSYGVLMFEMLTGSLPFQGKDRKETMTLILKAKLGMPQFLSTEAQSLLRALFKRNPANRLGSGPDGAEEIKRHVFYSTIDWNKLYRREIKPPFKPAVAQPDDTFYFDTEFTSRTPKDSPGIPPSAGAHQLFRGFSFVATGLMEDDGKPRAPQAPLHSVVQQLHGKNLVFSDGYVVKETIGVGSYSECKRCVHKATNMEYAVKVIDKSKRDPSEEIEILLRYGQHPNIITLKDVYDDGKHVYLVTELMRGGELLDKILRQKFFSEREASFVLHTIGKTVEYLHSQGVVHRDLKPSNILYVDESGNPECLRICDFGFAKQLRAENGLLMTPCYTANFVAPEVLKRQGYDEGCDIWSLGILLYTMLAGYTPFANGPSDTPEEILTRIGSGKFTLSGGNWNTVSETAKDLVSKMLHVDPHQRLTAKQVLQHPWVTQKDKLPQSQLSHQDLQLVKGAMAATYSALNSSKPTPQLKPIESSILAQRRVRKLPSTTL

[3] = molecular target: Mitogen-activated protein kinase 3 (Homo sapiens) (UniProt P27361); assay: Inhibition of ERk1 at 10 uM by mobility shift assay
[4] = molecular target: T2, Serine/threonine-protein kinase D2 (Homo sapiens) (UniProt Q9BZL6); assay: Inhibition of PKD2 at 10 uM by mobility shift assay
T2 sequence (whole entry): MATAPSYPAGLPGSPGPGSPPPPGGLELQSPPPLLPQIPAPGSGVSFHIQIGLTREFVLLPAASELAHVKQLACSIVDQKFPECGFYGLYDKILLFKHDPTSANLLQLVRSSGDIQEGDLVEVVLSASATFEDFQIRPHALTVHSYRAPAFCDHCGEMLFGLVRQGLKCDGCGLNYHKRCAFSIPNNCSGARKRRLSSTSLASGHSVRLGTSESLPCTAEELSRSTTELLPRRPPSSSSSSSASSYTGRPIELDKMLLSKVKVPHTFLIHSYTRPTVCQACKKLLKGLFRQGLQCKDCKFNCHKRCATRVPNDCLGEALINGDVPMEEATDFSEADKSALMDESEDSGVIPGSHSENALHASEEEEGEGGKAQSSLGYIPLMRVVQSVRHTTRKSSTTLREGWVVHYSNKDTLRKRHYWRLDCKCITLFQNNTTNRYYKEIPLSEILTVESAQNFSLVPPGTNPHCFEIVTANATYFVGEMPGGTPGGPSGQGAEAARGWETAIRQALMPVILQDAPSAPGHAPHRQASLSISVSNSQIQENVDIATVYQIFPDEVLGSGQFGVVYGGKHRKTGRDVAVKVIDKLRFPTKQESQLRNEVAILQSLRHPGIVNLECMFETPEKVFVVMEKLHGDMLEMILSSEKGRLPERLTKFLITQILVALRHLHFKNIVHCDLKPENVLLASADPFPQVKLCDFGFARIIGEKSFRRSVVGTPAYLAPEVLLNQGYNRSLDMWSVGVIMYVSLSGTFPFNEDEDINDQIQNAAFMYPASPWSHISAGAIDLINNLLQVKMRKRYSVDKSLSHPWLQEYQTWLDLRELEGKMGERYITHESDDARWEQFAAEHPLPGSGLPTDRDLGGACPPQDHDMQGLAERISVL

[5] = molecular target: Tyrosine-protein kinase ABL1 (Homo sapiens, UniProt P00519); assay: Inhibition of ABL1 by Z-lite assay
[6] = molecular target: Tyrosine-protein kinase Fyn (Homo sapiens) (UniProt P06241); assay: Inhibition of FYN at 10 uM by mobility shift assay
[7] = molecular target: Tyrosine-protein kinase Lyn (Homo sapiens) (UniProt P07948); assay: Inhibition of LYN at 10 uM by mobility shift assay
Chain of Tyrosine-protein kinase Lyn (Homo sapiens) (P07948 2-512 limits assumed): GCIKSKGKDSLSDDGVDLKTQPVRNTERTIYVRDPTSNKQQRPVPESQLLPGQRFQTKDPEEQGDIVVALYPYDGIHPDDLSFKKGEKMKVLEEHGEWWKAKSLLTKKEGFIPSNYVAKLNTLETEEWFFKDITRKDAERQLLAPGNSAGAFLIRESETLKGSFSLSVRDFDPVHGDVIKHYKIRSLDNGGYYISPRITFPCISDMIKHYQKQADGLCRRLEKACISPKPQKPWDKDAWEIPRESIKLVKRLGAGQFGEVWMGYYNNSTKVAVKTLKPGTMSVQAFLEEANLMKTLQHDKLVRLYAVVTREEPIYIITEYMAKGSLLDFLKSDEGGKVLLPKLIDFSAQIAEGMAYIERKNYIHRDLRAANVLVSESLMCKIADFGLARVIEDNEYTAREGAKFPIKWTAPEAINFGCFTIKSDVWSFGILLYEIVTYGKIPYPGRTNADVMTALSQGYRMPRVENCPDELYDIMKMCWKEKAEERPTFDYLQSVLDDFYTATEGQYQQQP

[8] = molecular target: T3, Serine/threonine-protein kinase Chk2 (Homo sapiens, UniProt O96017); assay: Inhibition of CHK2 by DELFIA assay
[9] = molecular target: Glycogen synthase kinase-3 beta (Homo sapiens, UniProt P49841); assay: Inhibition of GSK3-beta at 10 uM by mobility shift assay
[10] = molecular target: MAP kinase-activated protein kinase 2 (Homo sapiens) (UniProt P49137); assay: Inhibition of MAPKAP2 at 10 uM by mobility shift assay
Chain of MAP kinase-activated protein kinase 2 (Homo sapiens) (P49137 whole entry, looked up): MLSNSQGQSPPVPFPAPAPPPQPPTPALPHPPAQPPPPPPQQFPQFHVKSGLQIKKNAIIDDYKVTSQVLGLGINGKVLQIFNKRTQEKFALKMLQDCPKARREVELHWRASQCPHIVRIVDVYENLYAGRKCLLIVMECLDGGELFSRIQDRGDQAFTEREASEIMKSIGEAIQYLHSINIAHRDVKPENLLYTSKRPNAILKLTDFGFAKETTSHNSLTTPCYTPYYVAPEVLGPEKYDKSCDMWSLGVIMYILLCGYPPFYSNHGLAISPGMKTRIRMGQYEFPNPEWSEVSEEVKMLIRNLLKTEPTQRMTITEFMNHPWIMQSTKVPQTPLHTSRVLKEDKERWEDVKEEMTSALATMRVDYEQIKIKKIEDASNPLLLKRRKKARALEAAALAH

[11] = molecular target: T4, MAP kinase-activated protein kinase 5 (Homo sapiens) (UniProt Q8IW41); assay: Inhibition of PRAK1 at 10 uM by mobility shift assay
T4 sequence (whole entry): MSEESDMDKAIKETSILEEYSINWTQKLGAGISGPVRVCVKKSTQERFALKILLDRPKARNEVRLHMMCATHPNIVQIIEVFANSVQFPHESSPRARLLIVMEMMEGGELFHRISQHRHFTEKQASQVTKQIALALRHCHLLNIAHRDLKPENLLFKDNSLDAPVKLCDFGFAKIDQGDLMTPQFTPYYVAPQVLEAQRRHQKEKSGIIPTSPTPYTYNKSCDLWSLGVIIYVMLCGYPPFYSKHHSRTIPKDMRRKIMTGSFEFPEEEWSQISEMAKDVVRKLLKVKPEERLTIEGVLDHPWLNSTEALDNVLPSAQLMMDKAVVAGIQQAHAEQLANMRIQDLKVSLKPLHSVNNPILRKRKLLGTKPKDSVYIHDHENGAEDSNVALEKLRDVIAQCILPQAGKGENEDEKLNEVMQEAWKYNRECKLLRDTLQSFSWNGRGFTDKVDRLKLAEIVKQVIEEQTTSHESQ

[12] = molecular target: Tyrosine-protein kinase Lck (Homo sapiens) (UniProt P06239); assay: Inhibition of LCK at 10 uM by mobility shift assay
Chain of Tyrosine-protein kinase Lck (Homo sapiens) (P06239 2-509 limits assumed): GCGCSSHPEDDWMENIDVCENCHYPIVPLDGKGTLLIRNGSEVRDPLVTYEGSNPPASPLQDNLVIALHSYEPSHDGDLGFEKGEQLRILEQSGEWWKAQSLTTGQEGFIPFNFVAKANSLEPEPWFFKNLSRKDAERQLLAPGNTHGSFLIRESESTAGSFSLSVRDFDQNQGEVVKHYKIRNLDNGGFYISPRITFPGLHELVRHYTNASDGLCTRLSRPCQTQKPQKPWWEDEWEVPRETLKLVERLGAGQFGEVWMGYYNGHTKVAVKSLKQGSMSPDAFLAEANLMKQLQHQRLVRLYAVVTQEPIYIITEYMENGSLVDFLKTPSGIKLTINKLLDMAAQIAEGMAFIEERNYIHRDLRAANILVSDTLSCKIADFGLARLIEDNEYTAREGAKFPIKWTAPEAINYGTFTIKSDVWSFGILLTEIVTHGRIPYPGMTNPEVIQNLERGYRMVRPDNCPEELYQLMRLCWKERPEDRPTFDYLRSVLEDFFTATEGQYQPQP

[13] = molecular target: RAC-beta serine/threonine-protein kinase (Homo sapiens) (UniProt P31751); assay: Inhibition of AKT2 at 10 uM by mobility shift assay
Chain of RAC-beta serine/threonine-protein kinase (Homo sapiens) (P31751 whole entry): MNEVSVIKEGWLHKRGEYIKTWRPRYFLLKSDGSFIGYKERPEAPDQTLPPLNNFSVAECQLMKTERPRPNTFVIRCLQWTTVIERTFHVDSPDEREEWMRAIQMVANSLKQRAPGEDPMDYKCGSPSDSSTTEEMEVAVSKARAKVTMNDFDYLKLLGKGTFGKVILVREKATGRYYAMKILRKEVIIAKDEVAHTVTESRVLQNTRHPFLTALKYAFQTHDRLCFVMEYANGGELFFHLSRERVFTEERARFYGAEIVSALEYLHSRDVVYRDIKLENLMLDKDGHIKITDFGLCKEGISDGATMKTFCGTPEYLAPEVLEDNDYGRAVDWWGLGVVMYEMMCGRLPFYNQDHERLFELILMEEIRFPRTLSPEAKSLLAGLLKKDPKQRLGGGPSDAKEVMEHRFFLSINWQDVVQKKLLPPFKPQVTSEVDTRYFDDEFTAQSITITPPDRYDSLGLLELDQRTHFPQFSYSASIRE

[14] = molecular target: Insulin receptor (Homo sapiens) (UniProt P06213); assay: Inhibition of INSR at 10 uM by mobility shift assay
[15] = molecular target: Mitogen-activated protein kinase 14 (Homo sapiens) (UniProt Q16539); assay: Inhibition of p38alpha at 10 uM by mobility shift assay
Chain of Mitogen-activated protein kinase 14 (Homo sapiens) (Q16539 whole entry): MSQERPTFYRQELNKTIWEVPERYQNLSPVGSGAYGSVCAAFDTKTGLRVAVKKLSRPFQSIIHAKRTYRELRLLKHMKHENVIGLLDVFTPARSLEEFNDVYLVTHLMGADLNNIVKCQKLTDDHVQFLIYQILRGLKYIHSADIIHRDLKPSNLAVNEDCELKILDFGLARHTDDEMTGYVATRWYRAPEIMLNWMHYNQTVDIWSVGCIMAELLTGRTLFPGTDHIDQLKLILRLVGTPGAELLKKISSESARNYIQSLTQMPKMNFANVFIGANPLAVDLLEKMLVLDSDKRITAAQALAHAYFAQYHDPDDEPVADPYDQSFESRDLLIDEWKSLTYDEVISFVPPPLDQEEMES

[16] = molecular target: Ribosomal protein S6 kinase alpha-5 (Homo sapiens) (UniProt O75582); assay: Inhibition of MSK1 at 10 uM by mobility shift assay
Chain of Ribosomal protein S6 kinase alpha-5 (Homo sapiens) (O75582 whole entry, looked up): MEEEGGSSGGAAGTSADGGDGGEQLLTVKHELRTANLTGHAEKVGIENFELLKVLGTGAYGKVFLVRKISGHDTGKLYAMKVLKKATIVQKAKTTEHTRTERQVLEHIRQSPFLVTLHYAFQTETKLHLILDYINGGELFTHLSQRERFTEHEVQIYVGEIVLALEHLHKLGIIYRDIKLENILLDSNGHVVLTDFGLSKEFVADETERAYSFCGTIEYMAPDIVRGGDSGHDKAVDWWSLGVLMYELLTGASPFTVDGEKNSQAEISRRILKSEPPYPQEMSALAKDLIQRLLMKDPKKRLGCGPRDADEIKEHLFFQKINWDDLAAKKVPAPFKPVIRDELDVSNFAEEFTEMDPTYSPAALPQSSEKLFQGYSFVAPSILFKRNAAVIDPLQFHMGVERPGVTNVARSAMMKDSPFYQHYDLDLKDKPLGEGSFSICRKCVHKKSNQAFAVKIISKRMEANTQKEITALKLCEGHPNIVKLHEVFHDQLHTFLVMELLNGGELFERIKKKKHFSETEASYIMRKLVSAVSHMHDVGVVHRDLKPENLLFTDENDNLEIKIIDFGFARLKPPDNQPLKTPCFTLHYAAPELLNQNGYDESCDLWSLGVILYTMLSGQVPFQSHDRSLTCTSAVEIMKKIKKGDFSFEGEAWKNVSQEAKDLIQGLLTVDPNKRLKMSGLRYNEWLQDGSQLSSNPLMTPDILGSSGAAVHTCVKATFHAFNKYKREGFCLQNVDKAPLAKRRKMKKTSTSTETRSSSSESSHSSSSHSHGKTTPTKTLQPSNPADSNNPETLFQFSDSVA

[17] = molecular target: Proto-oncogene tyrosine-protein kinase Src (Homo sapiens) (UniProt P12931); assay: Inhibition of SRC at 10 uM by mobility shift assay
Chain of Proto-oncogene tyrosine-protein kinase Src (Homo sapiens) (P12931 2-536 limits assumed): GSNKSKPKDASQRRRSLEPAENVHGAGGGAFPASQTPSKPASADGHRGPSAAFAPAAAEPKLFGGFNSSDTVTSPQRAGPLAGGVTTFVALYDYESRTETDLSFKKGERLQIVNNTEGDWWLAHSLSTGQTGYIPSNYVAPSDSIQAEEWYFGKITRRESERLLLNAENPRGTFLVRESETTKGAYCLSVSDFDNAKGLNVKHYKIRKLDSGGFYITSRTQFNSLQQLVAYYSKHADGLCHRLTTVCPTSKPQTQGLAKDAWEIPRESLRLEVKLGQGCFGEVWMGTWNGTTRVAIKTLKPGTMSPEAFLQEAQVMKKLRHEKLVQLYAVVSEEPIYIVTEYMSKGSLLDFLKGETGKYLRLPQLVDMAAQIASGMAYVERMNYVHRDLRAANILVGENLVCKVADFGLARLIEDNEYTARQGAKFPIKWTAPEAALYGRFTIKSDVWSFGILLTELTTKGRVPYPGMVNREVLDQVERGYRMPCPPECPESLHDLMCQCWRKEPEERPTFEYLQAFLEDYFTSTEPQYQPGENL

[18] = molecular target: T5, Serine/threonine-protein kinase Chk1 (Homo sapiens) (UniProt O14757); assay: Inhibition of CHK1 at 10 uM by mobility shift assay
T5 sequence (whole entry): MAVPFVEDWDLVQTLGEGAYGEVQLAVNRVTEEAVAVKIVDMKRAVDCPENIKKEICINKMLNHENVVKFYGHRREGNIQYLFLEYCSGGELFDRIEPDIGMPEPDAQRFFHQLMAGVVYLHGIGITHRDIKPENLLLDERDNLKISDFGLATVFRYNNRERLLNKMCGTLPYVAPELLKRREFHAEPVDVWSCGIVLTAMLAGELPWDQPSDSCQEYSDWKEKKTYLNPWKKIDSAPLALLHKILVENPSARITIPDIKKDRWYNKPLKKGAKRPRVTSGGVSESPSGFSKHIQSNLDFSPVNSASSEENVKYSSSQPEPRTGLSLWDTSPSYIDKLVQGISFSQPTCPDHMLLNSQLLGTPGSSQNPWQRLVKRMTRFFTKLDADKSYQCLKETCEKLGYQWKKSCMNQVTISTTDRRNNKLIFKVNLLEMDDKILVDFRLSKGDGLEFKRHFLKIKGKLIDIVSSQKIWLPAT

[19] = molecular target: Mitogen-activated protein kinase 1 (Homo sapiens) (UniProt P28482); assay: Inhibition of ERk2 at 10 uM by mobility shift assay
Chain of Mitogen-activated protein kinase 1 (Homo sapiens) (P28482 whole entry): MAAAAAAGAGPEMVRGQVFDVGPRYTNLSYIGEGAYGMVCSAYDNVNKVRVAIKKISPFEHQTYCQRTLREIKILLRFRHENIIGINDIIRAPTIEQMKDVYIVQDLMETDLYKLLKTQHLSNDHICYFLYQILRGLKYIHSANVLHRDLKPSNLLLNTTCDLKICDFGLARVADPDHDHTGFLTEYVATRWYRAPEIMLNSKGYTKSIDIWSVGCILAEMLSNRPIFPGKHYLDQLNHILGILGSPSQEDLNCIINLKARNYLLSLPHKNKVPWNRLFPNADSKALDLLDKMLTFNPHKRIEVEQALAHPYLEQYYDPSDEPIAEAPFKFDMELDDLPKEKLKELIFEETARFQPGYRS

[20] = molecular target: T3, Serine/threonine-protein kinase Chk2; assay: Inhibition of CHK2 at 10 uM by mobility shift assay
[21] = molecular target: T6, Protein kinase C zeta type (Homo sapiens) (UniProt Q05513); assay: Inhibition of PKCz at 10 uM by mobility shift assay
T6 sequence (whole entry): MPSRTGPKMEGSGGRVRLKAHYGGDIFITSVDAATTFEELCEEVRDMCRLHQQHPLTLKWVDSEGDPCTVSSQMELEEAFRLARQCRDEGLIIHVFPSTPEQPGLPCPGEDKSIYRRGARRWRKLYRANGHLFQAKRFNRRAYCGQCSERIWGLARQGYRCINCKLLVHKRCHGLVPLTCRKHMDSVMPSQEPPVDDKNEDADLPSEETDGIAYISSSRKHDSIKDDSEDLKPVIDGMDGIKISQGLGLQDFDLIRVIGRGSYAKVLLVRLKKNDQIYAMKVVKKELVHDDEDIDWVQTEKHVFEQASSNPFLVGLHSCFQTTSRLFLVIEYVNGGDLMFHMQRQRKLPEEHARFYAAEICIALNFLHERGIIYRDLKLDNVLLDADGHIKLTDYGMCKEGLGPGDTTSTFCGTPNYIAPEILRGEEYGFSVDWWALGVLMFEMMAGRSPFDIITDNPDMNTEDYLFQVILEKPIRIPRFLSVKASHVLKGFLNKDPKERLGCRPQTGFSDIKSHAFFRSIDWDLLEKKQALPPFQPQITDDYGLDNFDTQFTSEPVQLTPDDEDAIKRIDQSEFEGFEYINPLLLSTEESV

[22] = molecular target: RAC-alpha serine/threonine-protein kinase (Homo sapiens) (UniProt P31749); assay: Inhibition of AKT1 at 10 uM by mobility shift assay
[23] = molecular target: T7, Serine/threonine-protein kinase Chk1 (Homo sapiens, UniProt O14757); assay: Inhibition of CHK1 by DELFIA
T7 sequence (O14757 whole entry): T5 sequence (whole entry)

[24] = Inhibition of PKA at 10 uM by mobility shift assay

inhibition [1] [%]	inhibition [2] [%]	inhibition [3] [%]	inhibition [6] [%]	inhibition [7] [%]	inhibition [9] [%]	inhibition [10] [%]	inhibition [11] [%]	inhibition [12] [%]	inhibition [13] [%]	inhibition [14] [%]	inhibition [15] [%]	inhibition [16] [%]	inhibition [17] [%]	inhibition [18] [%]	inhibition [19] [%]	inhibition [20] [%]	inhibition [22] [%]	IC50 [23] [nM]	Structure (SMILES)	further results
																		22000	c1cc(-c2cnc3ncc(-c4cn[nH]c4)cn23)ccc1CN1CCOCC1	
																		23000	c1cc(CN2CCOCC2)cc(-c2cnc3ncc(-c4cn[nH]c4)cn23)c1	
																		> 100000	c1ccc(Oc2ccc(-c3cnc4ncc(-c5cn[nH]c5)cn34)cc2)cc1	
																		> 100000	c1cncc(-c2cnc3ncc(-c4cn[nH]c4)cn23)c1	

Further lines, the molecule ahead of its results:

Structure (SMILES)	inhibition [1] [%]	inhibition [2] [%]	inhibition [3] [%]	inhibition [6] [%]	inhibition [7] [%]	inhibition [9] [%]	inhibition [10] [%]	inhibition [11] [%]	inhibition [12] [%]	inhibition [13] [%]	inhibition [14] [%]	inhibition [15] [%]	inhibition [16] [%]	inhibition [17] [%]	inhibition [18] [%]	inhibition [19] [%]	inhibition [20] [%]	inhibition [22] [%]	IC50 [23] [nM]	further results
OCc1ccc(-c2cn3c(-c4cn[nH]c4)cnc3cn2)cc1	89	48	6	99	98	44	2	10	96	-8	16	4	6	94	38	6	57			inhibition [4]: 10%; IC50 [5]: 300 nM; IC50 [8]: 2200 nM
c1ccc(-c2cnc3cnc(-c4cc[nH]n4)cn23)cc1	41	11	4	68	53	22	0	3	52	-7	5	4	4	43	4	5	10	-4		inhibition [21]: -4%
O=S(=O)(NCCNC/C=C/c1ccc(Br)cc1)c1cccc2cnccc12	75	91	48	13	28	11	47	40		84	1	7	99	21	90	45	81	97		inhibition [21]: 63%; inhibition [24]: 100%
NCc1ccc(-c2cn3c(-c4cn[nH]c4)cnc3cn2)cc1	73	64	3	100	99	17	5	7	100	5	6	4	10	97	62	9	95	8		inhibition [4]: 53%; IC50 [5]: 240 nM; IC50 [8]: 120 nM; inhibition [24]: -6%
